Test results taken from patent US20260008760A1, “DIPEPTIDYL PEPTIDASE 1 INHIBITORS AND USES THEREOF” (Insmed Incorporated, priority 2024, published 2026).
Several values for one entry are separate records, joined by “and”; a condition that tells them apart may be missing. Identical values can stand only once. Like-named read-outs stand apart in the source and are kept apart here.

Tests used:
DPP1 in HL-60 cells [1] = biological target: T1, DPP1 in HL-60 cells (Homo sapiens, UniProt P53634); test: DPP1 Cell IC50 assay; format: cell-based; set-up: host or cells: HL-60 cells; conditions: 60 min pre-incubation, H-Gly-Phe-AFC substrate, average of n runs
T1 sequence (P53634 25-463): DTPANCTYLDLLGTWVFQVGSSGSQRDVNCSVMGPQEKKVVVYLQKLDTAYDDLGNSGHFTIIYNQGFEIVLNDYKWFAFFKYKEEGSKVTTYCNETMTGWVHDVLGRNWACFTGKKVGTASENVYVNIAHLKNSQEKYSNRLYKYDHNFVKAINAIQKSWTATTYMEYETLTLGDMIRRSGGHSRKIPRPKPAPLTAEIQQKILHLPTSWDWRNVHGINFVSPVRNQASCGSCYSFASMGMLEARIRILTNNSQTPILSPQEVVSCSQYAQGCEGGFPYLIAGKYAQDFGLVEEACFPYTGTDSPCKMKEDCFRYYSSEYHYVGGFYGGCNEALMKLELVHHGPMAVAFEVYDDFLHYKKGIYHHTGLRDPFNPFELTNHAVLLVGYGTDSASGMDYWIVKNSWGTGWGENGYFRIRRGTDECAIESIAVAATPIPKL
How it was run: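 HL-60 cells in PBS (5×10^5 live cells per mL) pre-incubated with compound (0.5% DMSO) 60 min at 37° C, 5% CO2, then H-Gly-Phe-AFC substrate (500 μM stock) added for 30 min. Fluorescence at 400/505 nm; % inhibition vs vehicle wells, IC50 from four-parameter logistic fit.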

DPP1 in HL-60 cells [2] = biological target: T1, DPP1 in HL-60 cells; test: DPP1 Cell Single-Point Percent Inhibition Testing; format: cell-based; set-up: host or cells: HL-60 cells; conditions: final compound concentration 5 nM, n = 1
How it was run: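 HL-60 cells in unsupplemented RPMI preincubated 60 min at 37 °C with test article (5 nM final, 0.1% DMSO), then given cell-permeable H-Gly-Phe-AFC (100 μM final) for 30 min. Fluorescence at 400/505 nm; percent inhibition versus vehicle after subtracting cell-free background and 10 μM brensocatib non-specific signal.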

human DPP1 enzyme [3] = biological target: T2, human DPP1 enzyme (Homo sapiens, UniProt P53634); test: Human DPP1 Enzyme IC50 Assay; format: biochemical; set-up: was first proteolytically processed into its mature form using recombinant human cathepsin L; purchased R&D Systems
How it was run: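 Recombinant human DPP1, pre-activated with cathepsin L (pH 4.5), was preincubated with compound 10 min at 37 °C in MES pH 6.0, 50 mM NaCl, 5 mM DTT, 1% DMSO. Cleavage of 400 μM (final) H-Gly-Arg-AMC followed by fluorescence (350/450 nm) over 90 min at 37 °C; IC50 from four-parameter logistic fit versus no-compound control.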
Target sequence in this assay (P53634 25-134 limits assumed): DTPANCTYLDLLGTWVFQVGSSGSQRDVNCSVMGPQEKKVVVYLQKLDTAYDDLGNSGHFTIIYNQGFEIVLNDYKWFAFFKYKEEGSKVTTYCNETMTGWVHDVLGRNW
Target sequence in this assay (P53634 231-394 limits assumed): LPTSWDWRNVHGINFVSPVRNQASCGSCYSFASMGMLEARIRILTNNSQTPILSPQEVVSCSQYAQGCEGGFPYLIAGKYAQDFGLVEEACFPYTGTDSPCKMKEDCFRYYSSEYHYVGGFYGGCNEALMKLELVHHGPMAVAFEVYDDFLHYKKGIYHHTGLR
Target sequence in this assay (P53634 395-463 limits assumed): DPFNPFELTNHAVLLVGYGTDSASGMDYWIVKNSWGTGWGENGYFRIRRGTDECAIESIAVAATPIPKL

human DPP1 enzyme [4] = biological target: T2, human DPP1 enzyme; test: Human DPP1 Enzyme Single-Point Percent Inhibition Testing (HL-60 lysate); format: biochemical; set-up: A crude lysate of HL-60 cells (ATCC; Manassas, VA) was used as a source of human DPP1 enzyme; host or cells: HL-60 cells (crude lysate); conditions: final compound concentration of 10 nM, 400 μM H-Gly-Arg-AMC, n = 1
How it was run: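 Enzyme source was HL-60 cell lysate in MES pH 6.0 buffer with NaCl and DTT, pre-incubated 10 min at 37° C with 10 nM compound (final, 1% DMSO). Cleavage of 400 μM H-Gly-Arg-AMC was followed at 350/450 nm over 90 min at 37° C, and percent inhibition was taken against vehicle wells.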
Target sequence in this assay (P53634 25-463): as the sequence (P53634 25-463) above

[5] = read-out: Avg. IC50 (DPP1 Cell IC50 value ranges)
[6] = activated recombinant human DPP1, 400 μM H-Gly-Arg-AMC, 10 minutes pre-incubation at 37° C., pH 6.0, average of n runs, read-out: Avg. IC50 (Human DPP1 enzyme IC50 value ranges)
[7] = Avg. IC50 (DPP1 Cell IC50 value ranges)

SMILES | IC50 (DPP1 in HL-60 cells [1]; [5]) | inhibition at 0.005 µM (DPP1 in HL-60 cells [2]) | IC50 (human DPP1 enzyme [3]; [6]) | inhibition at 0.01 µM (human DPP1 enzyme [4]) | IC50 (DPP1 in HL-60 cells [1]; [7]) | IC50 (human DPP1 enzyme [3])
CCN1C(=O)Cc2ccc(-c3ccc(C[C@@H](C#N)NC(=O)[C@@H]4CNCCCO4)cc3)cc21 [Compound G11] | > 2.5 nM | ≤ 76.5% | > 15 nM | ≤ 40% |  | 
CCN1C(=O)Cc2ccc(-c3ccc(C[C@@H](C#N)NC(=O)[C@@H]4CN[C@@H](C)[C@@H](O)CO4)c(F)c3)cc21 [Compound G10] | > 2.5 nM | ≤ 76.5% | 5 to 15 nM | 40 to 66.7% |  | 
N#C[C@H](Cc1ccc(-c2ccc(S(=O)(=O)N3CCC3)cc2)cc1)NC(=O)[C@@H]1CNCCCO1 [Compound 19, (S)—N—((S)-2-(4′-(azetidin-1-ylsulfonyl)-[1,1′-biphenyl]-4-yl)-1-cyanoethyl)-1,4-oxazepane-2-carboxamide] | > 2.5 nM | ≤ 76.5% | > 15 nM | ≤ 40% |  | 
N#Cc1ccc2c(c1)CSc1cc(C[C@@H](C#N)NC(=O)[C@@H]3CNCCCCO3)c(F)cc1-2 [Compound B17] | > 2.5 nM | ≤ 76.5% | 5 to 15 nM | 40 to 66.7% |  | 
Cn1c(=O)oc2cc3c(cc21)-c1cc(F)c(C[C@@H](C#N)NC(=O)[C@@H]2CNCCCCO2)cc1SC3 [Compound C8] | 1 to 2.5 nM | ≤ 76.5% | < 5 nM | ≥ 66.7% |  | 
Cc1ncc(C)n2cc(-c3ccc(C[C@@H](C#N)NC(=O)[C@@H]4CNCCCCO4)cc3)cc12 [Compound A137] | 1 to 2.5 nM | 76.5 to 93.9% | > 15 nM | ≤ 40% |  | 
CN1CCC(N2CC[C@]3(COCc4ccc(-c5ccc(C[C@@H](C#N)NC(=O)[C@@H]6CNCCCO6)cc5)cc43)C2)CC1 [Compound I8] | > 2.5 nM | ≤ 76.5% | 5 to 15 nM | ≥ 66.7% |  | 
CO[C@H]1CCO[C@H](C(=O)N[C@H](C#N)Cc2ccc(-c3cc4c(C)nc(C)cn4c3)cc2)CNC1 [Compound A92] | > 2.5 nM and 1 to 2.5 nM | ≤ 76.5% | > 15 nM | ≤ 40% |  | 
CCN1C(=O)Cc2ccc(-c3ccc(C[C@@H](C#N)NC(=O)[C@@H]4CN[C@@H](C)[C@@H](O)CO4)cc3)cc21 [Compound G9] | > 2.5 nM | ≤ 76.5% | > 15 nM | ≤ 40% |  | 
COC1CNC[C@@H](C(=O)N[C@H](C#N)Cc2ccc(-c3ccc4nnn(C)c4c3)cc2)OC1 (some centres unmarked) [Compound H12] | > 2.5 nM and 1 to 2.5 nM | ≤ 76.5% | < 5 nM | ≥ 66.7% |  | 
COC1CNC[C@@H](C(=O)N[C@H](C#N)Cc2ccc(-c3cc4c(C)nc(C)cn4c3)cc2F)OC1 (some centres unmarked) [Compound A88] | 1 to 2.5 nM | 76.5 to 93.9% | < 5 nM | ≥ 66.7% |  | 
N#C[C@H](Cc1cc2c(cc1F)-c1cc3c(cc1CO2)COC31CCN(C2COC2)CC1)NC(=O)[C@@H]1CNCCCO1 [Compound C31] | > 2.5 nM | ≤ 76.5% | < 5 nM | ≥ 66.7% |  | 
CO[C@@H]1CCNC[C@@H](C(=O)N[C@H](C#N)Cc2ccc(-c3ccc4c(c3)C3(CCN(C5COC5)CC3)OC4)cc2F)OC1 [Compound F6] | > 2.5 nM | ≤ 76.5% | < 5 nM | ≥ 66.7% |  | 
CN1CC[C@]2(C1)C(=O)OCc1ccc(-c3ccc(C[C@@H](C#N)NC(=O)[C@@H]4CNCCCO4)cc3)cc12 [Compound I2] | > 2.5 nM | ≤ 76.5% | 5 to 15 nM | 40 to 66.7% |  | 
CCN1C(=O)Cc2ccc(-c3ccc(C[C@@H](C#N)NC(=O)[C@@H]4CNCC[C@@H](OC)CO4)c(F)c3)cc21 [Compound G2] | 1 to 2.5 nM | ≤ 76.5% | < 5 nM | ≥ 66.7% |  | 
Cc1nc(C)c2cc(-c3ccc(C[C@@H](C#N)NC(=O)[C@@H]4CNCCCCO4)cc3)cn2c1C [Compound A138] | < 1 nM | 76.5 to 93.9% | > 15 nM | ≤ 40% |  | 

SMILES | IC50 (DPP1 in HL-60 cells [1]; [5]) | inhibition at 0.005 µM (DPP1 in HL-60 cells [2]) | IC50 (human DPP1 enzyme [3]; [6]) | inhibition at 0.01 µM (human DPP1 enzyme [4]) | IC50 (DPP1 in HL-60 cells [1]; [7]) | IC50 (human DPP1 enzyme [3])
N#C[C@H](Cc1ccc(-c2ccn3ccnc3c2)cc1)NC(=O)[C@@H]1CNCCCO1 [Compound A142] | > 2.5 nM | ≤ 76.5% | > 15 nM | ≤ 40% |  | 
CCCN1CCC2(CC1)SCCc1ccc(-c3ccc(C[C@@H](C#N)NC(=O)[C@@H]4CNCCCO4)cc3)cc12 [Compound I3] | > 2.5 nM | ≤ 76.5% | 5 to 15 nM | ≥ 66.7% |  | 
Cn1c(=O)oc2ccc3c(c21)COc1cc(CC(C#N)NC(=O)[C@@H]2CNCCCO2)c(F)cc1-3 (some centres unmarked) [Compound C29] | > 2.5 nM and 1 to 2.5 nM | ≤ 76.5% | > 15 nM | ≤ 40% |  | 
C[C@@H]1NC[C@@H](C(=O)N[C@H](C#N)Cc2ccc(-c3cnc4c(n3)CCCC4)cc2F)OC[C@@H]1O [Compound A109] | > 2.5 nM and 1 to 2.5 nM | ≤ 76.5% | 5 to 15 nM and < 5 nM | 40 to 66.7% |  | 
C[C@@H]1NC[C@@H](C(=O)N[C@H](C#N)Cc2ccc(-c3ccc4c(n3)CCCN4)cc2)OC[C@@H]1O [Compound A105] | > 2.5 nM | ≤ 76.5% | > 15 nM | ≤ 40% |  | 
N#C[C@H](Cc1cc2c(cc1F)-c1cc3c(cc1CO2)COC31CCN(C2COC2)CC1)NC(=O)[C@@H]1CNCCCCO1 [Compound C32] | > 2.5 nM | ≤ 76.5% | < 5 nM | ≥ 66.7% |  | 
CCN1C(=O)Cc2ccc(-c3ccc(C[C@@H](C#N)NC(=O)[C@@H]4CNCCCO4)c(F)c3)cc21 [Compound G12] | > 2.5 nM and 1 to 2.5 nM | ≤ 76.5% | 5 to 15 nM | 40 to 66.7% |  | 
CO[C@@H]1CCNC[C@@H](C(=O)N[C@H](C#N)Cc2ccc(-c3ccc4cnn(C)c4c3)cc2)OC1 [Compound H5] | 1 to 2.5 nM | 76.5 to 93.9% | 5 to 15 nM | ≥ 66.7% |  | 
N#Cc1ccc2c(c1)-c1cc(F)c(CC(C#N)NC(=O)[C@@H]3CNCCCO3)cc1OC2 (some centres unmarked) [Compound B33] |  | ≤ 76.5% |  | ≤ 40% | > 2.5 nM | > 15 nM
CO[C@H]1CCO[C@H](C(=O)N[C@H](C#N)Cc2ccc(-c3ccc4c(c3)C3(CCN(C5COC5)CC3)OC4)cc2F)CNC1 [Compound F5] | 1 to 2.5 nM | ≤ 76.5% | < 5 nM | ≥ 66.7% |  | 
N#Cc1ccc2c(c1)COc1cc(C[C@@H](C#N)NC(=O)[C@@H]3CNCCCO3)c(F)cc1-2 [Compound B32] |  | 76.5 to 93.9% |  | 40 to 66.7% | 1 to 2.5 nM | 5 to 15 nM
CO[C@H]1CCO[C@H](C(=O)N[C@H](C#N)Cc2ccc(-c3ccc4cnn(C5CCN(C)CC5)c4c3)cc2)CNC1 [Compound H15] |  | ≤ 76.5% |  | 40 to 66.7% |  | 
N#C[C@H](Cc1ccc(-c2ccc3c(n2)CCCN3)cc1)NC(=O)[C@@H]1CNCCCCO1 [Compound A111] |  | ≤ 76.5% |  | ≤ 40% |  | 
CO[C@H]1CCO[C@H](C(=O)N[C@H](C#N)Cc2ccc(-c3ccn4ccnc4c3)cc2)CNC1 [Compound H41] |  | ≤ 76.5% |  | ≤ 40% |  | 
COC1CNC[C@@H](C(=O)N[C@H](C#N)Cc2ccc(-c3cnc4c(n3)CCCC4)cc2F)OC1 (some centres unmarked) [Compound A91] |  | ≤ 76.5% |  | ≥ 66.7% |  | 
